# Reference: PMC11167041, “Purification, characterization and three-dimensional structure prediction of multicopper oxidase Laccases from Trichoderma lixii FLU1 and Talaromyces pinophilus FLU12” (Scientific Reports, 2024)
# Where two headings read alike, the source gives them in different places.
# Key:
# [1] = system: T1, Laccase from Trichoderma lixii FLU1 (TlFLU1); assay: spectrophotometric oxidation assay, […] nm, Michaelis-Menten fit; type: biochemical; settings: 50 mM acetate buffer pH 5, 30 °C; substrate varied 1-5 mM
# T1 construct: native extracellular enzyme purified from culture; monomer, 44 kDa (SDS-PAGE)
# [2] = system: Laccase from Trichoderma lixii FLU1 (TlFLU1); settings: 50 mM acetate buffer pH 5, 30 °C; substrate varied 1-5 mM
# [3] = system: T2, Laccase from Talaromyces pinophilus FLU12 (TpFLU12); assay: spectrophotometric oxidation assay, […] nm, Michaelis-Menten fit; type: biochemical; settings: 50 mM acetate buffer pH 7, 50 °C; substrate varied 1-5 mM
# T2 construct: native extracellular enzyme purified from culture
# [4] = system: T2, Laccase from Talaromyces pinophilus FLU12 (TpFLU12); assay: as above; type: biochemical; settings: 50 mM acetate buffer pH 7, 50 °C; substrate varied 1-5 mM; remark: listed apart in the source
# [5] = system: T1, Laccase from Trichoderma lixii FLU1 (TlFLU1); assay: as above; type: biochemical; settings: 50 mM acetate buffer pH 5, 30 °C; substrate varied 1-5 mM; remark: listed apart in the source
# [6] = system: T1, Laccase from Trichoderma lixii FLU1 (TlFLU1); assay: as above; type: biochemical; settings: 50 mM acetate buffer pH 5, 30 °C; substrate varied 1-5 mM; remark: listed apart in the source
structure (smiles),measurement,setting,value
"COc1cccc(OC)c1O [2,6-DMP, 2,6-dimethoxyphenol]",Km,[1],13 µM
"CCn1c(=NN=c2sc3cc(S(=O)(=O)O)ccc3n2CC)sc2cc(S(=O)(=O)O)ccc21 [ABTS, 2,2-azino-bis-(3-ethyl-benzothiazoline-6-sulphonic acid)]",Km,[2],10.8 µM
same,Km,[3],8.2 µM
O=C(O)/C=C/c1ccc(O)c(O)c1 [caffeic acid],Km,[4],38.6 µM
same,Km,[5],43 µM
COc1ccccc1O [guaiacol],Km,[6],12.7 µM
